Each structure is given as a SMILES string. Bounds are passed on as bounds.

The target in the first test is T1, human GlyT1c transporter (Homo sapiens, UniProt P48067).
T1 construct: expressed in transfected cells; host or cells: CHO cells (recombinant; line hGlyT1c_5_CHO is named for the uptake assay)
T1 sequence (P48067 1-706): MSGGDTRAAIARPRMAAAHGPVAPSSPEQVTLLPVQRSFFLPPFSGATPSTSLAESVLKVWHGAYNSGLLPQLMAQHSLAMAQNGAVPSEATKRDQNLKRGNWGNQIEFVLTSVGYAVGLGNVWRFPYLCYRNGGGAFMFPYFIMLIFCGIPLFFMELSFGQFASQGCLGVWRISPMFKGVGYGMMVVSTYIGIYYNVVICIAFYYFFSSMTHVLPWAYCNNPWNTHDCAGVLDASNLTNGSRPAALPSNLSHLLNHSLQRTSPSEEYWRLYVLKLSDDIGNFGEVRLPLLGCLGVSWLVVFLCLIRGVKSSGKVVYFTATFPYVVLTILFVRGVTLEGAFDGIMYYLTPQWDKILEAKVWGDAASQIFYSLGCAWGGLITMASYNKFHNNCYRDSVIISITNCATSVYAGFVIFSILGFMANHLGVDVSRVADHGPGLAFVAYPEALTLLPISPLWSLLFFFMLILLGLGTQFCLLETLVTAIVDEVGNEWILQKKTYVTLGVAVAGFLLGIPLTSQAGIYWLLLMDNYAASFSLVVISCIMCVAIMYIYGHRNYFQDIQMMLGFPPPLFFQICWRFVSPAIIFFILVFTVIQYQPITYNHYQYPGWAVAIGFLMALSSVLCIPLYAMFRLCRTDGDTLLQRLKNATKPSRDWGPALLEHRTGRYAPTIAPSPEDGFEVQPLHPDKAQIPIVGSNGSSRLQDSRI
Nature of the test: Radioligand binding assay using recombinant CHO cell membranes expressing human GlyT1. Conditions: radioligand binding to human GlyT1c transporter-expressing membranes. From the text: 2. Radioligand binding assays using recombinant CHO cell membranes expressing human GlyT1: […]
The term Ki denotes a dissociation constant, usually derived from enzyme kinetics or from competition with a known ligand. Regarding `Cn1ccc(S(=O)(=O)N2C[C@@H](NC(=O)c3cccc(C(F)(F)F)c3Cl)[C@H](c3ccccc3)C2)n1` (relative stereo) [Example 49, 2-chloro-N-{trans-1-[(1-methyl-1H-pyrazol-3-yl)sulfonyl]-4-phenylpyrrolidin-3-yl}-3-(trifluoromethyl)benzamide], the Ki is at most 10 µM. Regarding `Cn1cnc(S(=O)(=O)N2C[C@@H](Nc3cccc(Cl)c3)[C@H](OCC3CC3)C2)c1` (relative stereo) [Example 530, Trans-N-(3-chlorophenyl)-4-(cyclopropylmethoxy)-1-[(1-methyl-1H-imidazol-4-yl)sulfonyl]pyrrolidin-3-amine], the Ki was at most 1 µM. Turning to `Cc1csc(S(=O)(=O)N2CC(Nc3ccc(F)c(F)c3)C(c3ccccc3)C2)c1` (stereo not drawn) [Example 484, N-(3,4-difluorophenyl)-1-[(4-methylthiophen-2-yl)sulfonyl]-4-phenylpyrrolidin-3-amine], the Ki was at most 10 µM. The same measure, in the same setting: as for `Cn1cnc(S(=O)(=O)N2C[C@@H](Nc3ccc(C(F)(F)F)cc3)[C@H](c3ccccc3Cl)C2)c1` (relative stereo) [Example 256, trans-4-(2-chlorophenyl)-1-[(1-methyl-1H-imidazol-4-yl)sulfonyl]-N-[4-(trifluoromethyl)phenyl]pyrrolidin-3-amine], the figure is at most 1 µM; as for `Cn1cnc(S(=O)(=O)N2C[C@H](NCc3ccc(C(F)(F)F)cn3)[C@@H](c3ccccc3)C2)c1` [Example 409, (3R,4S)-1-[(1-methyl-1H-imidazol-4-yl)sulfonyl]-4-phenyl-N-{[5-(trifluoromethyl)pyridin-2-yl]methyl}pyrrolidin-3-amine], at most 0.1 µM; as for `O=c1[nH]c2ccc(S(=O)(=O)N3CC(Nc4ccc(F)c(F)c4)C(c4ccccc4)C3)cc2[nH]c1=O` (stereo not drawn) [Example 501, 6-({3-[(3,4-difluorophenyl)amino]-4-phenylpyrrolidin-1-yl}sulfonyl)-1,4-dihydroquinoxaline-2,3-dione], at most 10 µM. `Cn1cnc(S(=O)(=O)N2C[C@H](NCCCCC(F)(F)F)[C@@H](c3ccc(F)cc3)C2)c1` [Example 732, (3R,4S)-4-(4-fluorophenyl)-1-[(1-methyl-1H-imidazol-4-yl)sulfonyl]-N-(5,5,5-trifluoropentyl)pyrrolidin-3-amine]: the Ki was at most 0.1 µM.

Take `CC(=O)Nc1ccc(Cl)cc1N[C@@H]1CN(S(=O)(=O)c2cn(C)cn2)C[C@H]1c1ccc(F)cc1` (relative stereo) [Example 372, N-[4-chloro-2-({Trans-4-(4-fluorophenyl)-1-[(1-methyl-1H-imidazol-4-yl)sulfonyl]pyrrolidin-3-yl}amino)phenyl]acetamide]: the Ki is at most 10 µM.

For the compound `Cn1cnc(S(=O)(=O)N2C[C@@H](Nc3cccc(C(F)(F)F)n3)[C@H](c3ccc(F)cc3)C2)c1` (relative stereo) [Example 180, N-{trans-4-(4-fluorophenyl)-1-[(1-methyl-1H-imidazol-4-yl)sulfonyl]pyrrolidin-3-yl}-6-(trifluoromethyl)pyridin-2-amine], the Ki was at most 1 µM. On to `Cn1cnc(S(=O)(=O)N2C[C@H](Nc3cc(OCC(F)(F)F)c(F)cn3)[C@@H](c3ccc(F)cc3)C2)c1` [Example 810, 5-fluoro-N-{(3R,4S)-4-(4-fluorophenyl)-1-[(1-methyl-1H-imidazol-4-yl)sulfonyl]pyrrolidin-3-yl}-4-(2,2,2-trifluoroethoxy)pyridin-2-amine], for which the Ki was at most 0.01 µM. Turning to `CCC(C)C(C)CN[C@H]1CN(S(=O)(=O)c2cn(C)cn2)C[C@@H]1c1ccccc1` (stereo partly drawn) [Example 561, (3R,4S)-N-(2,3-dimethylpentyl)-1-[(1-methyl-1H-imidazol-4-yl)sulfonyl]-4-phenylpyrrolidin-3-amine], the Ki is at most 1 µM. As to `COCCNC(=O)[C@@H]1CN(S(=O)(=O)c2cn(C)cn2)C[C@H]1c1ccc(F)cc1` [Example 579, (3S,4R)-4-(4-fluorophenyl)-N-(2-methoxyethyl)-1-[(1-methyl-1H-imidazol-4-yl)sulfonyl]pyrrolidine-3-carboxamide], the Ki was at most 10 µM. Still for that read-out and setting: next, `O=S(=O)(N1CCCC1)N1CC(Nc2ccc(F)c(F)c2)C(c2ccccc2)C1` (stereo not drawn) [Example 485, N-(3,4-difluorophenyl)-4-phenyl-1-(pyrrolidin-1-ylsulfonyl)pyrrolidin-3-amine]: at most 10 µM; `Cn1cnc(S(=O)(=O)N2C[C@@H](NC(=O)c3cccc(C(F)(F)F)c3)[C@H](c3ccccc3)C2)c1` (relative stereo) [Example 36, N-{trans-1-[(1-methyl-1H-imidazol-4-yl)sulfonyl]-4-phenylpyrrolidin-3-yl}-3-(trifluoromethyl)benzamide]: at most 1 µM; `Cn1cnc(S(=O)(=O)N2C[C@H](NC(=O)Nc3ccccc3)[C@@H](c3ccc(F)cc3)C2)c1` [Example 692, 1-{(3R,4S)-4-(4-fluorophenyl)-1-[(1-methyl-1H-imidazol-4-yl)sulfonyl]pyrrolidin-3-yl}-3-phenylurea]: at most 1 µM. As to `Cn1cnc(S(=O)(=O)N2C[C@@H](Nc3ccc(Cl)c(F)c3)[C@H](c3cccc(F)c3)C2)c1` (relative stereo) [Example 193, trans-N-(4-chloro-3-fluorophenyl)-4-(3-fluorophenyl)-1-[(1-methyl-1H-imidazol-4-yl)sulfonyl]pyrrolidin-3-amine], the Ki is at most 10 µM. In the case of `Cc1cc2c(cc1S(=O)(=O)N1CC(Nc3ccc(F)c(F)c3)C(c3ccccc3)C1)OCC(=O)N2` (stereo not drawn) [Example 481, 7-({3-[(3,4-difluorophenyl)amino]-4-phenylpyrrolidin-1-yl}sulfonyl)-6-methyl-2H-1,4-benzoxazin-3(4H)-one], the Ki is at most 10 µM. Regarding `CCCCNC[C@@H]1CN(S(=O)(=O)c2cn(C)cn2)C[C@H]1c1ccc(F)cc1` (relative stereo) [Example 595, N-({trans-4-(4-fluorophenyl)-1-[(1-methyl-1H-imidazol-4-yl)sulfonyl]pyrrolidin-3-yl}methyl)butan-1-amine], the Ki is at most 10 µM. Same read-out and setting: next, `CCCS(=O)(=O)N1C[C@@H](Nc2cccc(C#N)c2)[C@H](c2ccccc2)C1` (relative stereo) [Example 132, 3-{[trans-4-phenyl-1-(propylsulfonyl)pyrrolidin-3-yl]amino}benzonitrile]: at most 10 µM; `Cn1cnc(S(=O)(=O)N2C[C@H](NCc3scnc3Cl)[C@@H](c3ccccc3)C2)c1` [Example 565, (3R,4S)-N-[(4-chloro-1,3-thiazol-5-yl)methyl]-1-[(1-methyl-1H-imidazol-4-yl)sulfonyl]-4-phenylpyrrolidin-3-amine]: at most 10 µM. Still for that read-out and setting: as for `Cn1cnc(S(=O)(=O)N2C[C@@H](Nc3ccncc3)[C@H](c3cccc(F)c3)C2)c1` (relative stereo) [Example 191, N-{trans-4-(3-fluorophenyl)-1-[(1-methyl-1H-imidazol-4-yl)sulfonyl]pyrrolidin-3-yl}pyridin-4-amine], the figure is at most 10 µM; as for `CCOCCNC[C@@H]1CN(S(=O)(=O)c2cn(C)cn2)C[C@H]1c1ccc(F)cc1` (relative stereo) [Example 598, 2-ethoxy-N-({trans-4-(4-fluorophenyl)-1-[(1-methyl-1H-imidazol-4-yl)sulfonyl]pyrrolidin-3-yl}methyl)ethanamine], at most 10 µM; as for `Cn1cnc(S(=O)(=O)N2C[C@@H](Nc3cccc(Cl)c3)[C@H](c3ccccn3)C2)c1` (relative stereo) [Example 345, Trans-N-(3-chlorophenyl)-1-[(1-methyl-1H-imidazol-4-yl)sulfonyl]-4-(pyridin-2-yl)pyrrolidin-3-amine], at most 0.1 µM.

In the case of `Cn1cnc(S(=O)(=O)N2C[C@@H](NC(=O)c3ccc(F)cc3Cl)[C@H](c3ccccc3)C2)c1` (relative stereo) [Example 27, 2-chloro-4-fluoro-N-{trans-1-[(1-methyl-1H-imidazol-4-yl)sulfonyl]-4-phenylpyrrolidin-3-yl}benzamide], the inhibitory constant (Ki) was at most 1 µM. In the case of `CCCOC(=O)N[C@H]1CN(S(=O)(=O)c2cn(C)cn2)C[C@@H]1c1ccccc1` [Example 542, propyl {(3R,4S)-1-[(1-methyl-1H-imidazol-4-yl)sulfonyl]-4-phenylpyrrolidin-3-yl}carbamate], the Ki is at most 10 µM.

Still in this test, the particulars now being: radioligand binding, recombinant CHO cell membranes expressing human GlyT1c.
Turning to `Cn1cnc(S(=O)(=O)N2CC3c4ccccc4CCC3(NCc3ccc(C(F)(F)F)cc3Cl)C2)c1` (stereo not drawn) [Example 890, N-[2-chloro-4-(trifluoromethyl)benzyl]-2-[(1-methyl-1H-imidazol-4-yl)sulfonyl]-1,2,3,4,5,9b-hexahydro-3aH-benzo[e]isoindol-3a-amine], the inhibitory constant (Ki) was at most 0.1 µM. Turning to `Cn1cnc(S(=O)(=O)N2C[C@@H](Nc3cc(C(F)(F)F)c(Cl)cn3)[C@H](C3CCCCO3)C2)c1` (relative stereo) [Example 848, 5-Chloro-N-[trans-1-[(1-methyl-1H-imidazol-4-yl)sulfonyl]-4-(tetrahydro-2H-pyran-2-yl)pyrrolidin-3-yl]-4-(trifluoromethyl)pyridin-2-amine], the Ki was at most 1 µM.

The record behind these values is patent publication EP2970215B1, “PYRROLIDINE DERIVATIVES, PHARMACEUTICAL COMPOSITIONS CONTAINING THEM, AND THEIR USE IN THERAPY” (AbbVie Deutschland GmbH & Co. KG, priority 2013, dated 2014).
